US8222247B2, “Modulators of glucocorticoid receptor, AP-1, and/or NF-kappabeta activity and use thereof” (Bristol-Myers Squibb Company, priority 2006, dated 2012)
Read-outs that look alike come from different tables or passages of the source.

System: AP-1 induced transcriptional activity
Experiment: Cellular Transrepressional Assay (AP-1 luciferase reporter in A549 cell, PMA activated)
Format: cell-based
Settings: pAP-1-Luc; for Emax / AP-1 Max % inh (Cellular Transrepression Assay): maximum inhibition, PMA; for Emax: read-out: AP-1 Max % inh (Cellular Transrepression Assay); for EC50: 10 ng/ml PMA, 7 hours, read-out: AP-1 EC50, nM (Cellular Transrepression Assay)
Description: Cellular Transrepressional Assay
To measure the ability of test molecules to inhibit AP-1 induced transcriptional activity we utilized an A549 cell which was stably transfected with a plasmid containing 7×AP-1 DNA binding sites (pAP-1-Luc plasmid, Stratagene Co. La Jolla, Calif.) followed by the gene for luciferase. Cells were activated with 10 ng/ml of phorbol myristic acid (PMA) plus or minus test molecules for 7 hours. After 7 hours a luciferase reagent was added to measure luciferase enzymatic activity in the cell. After a 10 minute incubation of luciferase reagent with cells, luminescence was measured in a TopCount luminescence counter. Repression of AP-1 activity was calculated as the percentage decrease in the signal induced by PMA alone. Test molecules were analyzed in the concentration range from 0.1 nM to 40 μM. EC50s were determined by using standard curve fitting methods such as Excel fit (Microsoft Co.). An EC50 is the test molecule concentration at which there is a 50% repression of the maximal inhibition of transcription, i.e. a 50% reduction of AP-1 activity.

EC50 (Homo sapiens, A549, 7 h)	EC50	Compound	Emax (Homo sapiens, A549, 7 h)	AP-1 Max % inh (Cellular Transrepression Assay)
40.5 nM		CC(C)(C(=O)Nc1nccs1)C(c1ccccc1)c1ccc(N2CCOCC2)nc1 (single isomer, unassigned) [Example 21, 2,2-Dimethyl-3-(6-(4-morpholinyl)-3-pyridinyl)-3-phenyl-N-1,3-thiazol-2-ylpropanamide]	23.9%	
142 nM		CC(C)(C(=O)Nc1nncs1)C(c1ccccc1)c1ccc(N2CCOCC2)nc1 (single isomer, unassigned) [Example 23, 2,2-Dimethyl-3-(6-(4-morpholinyl)-3-pyridinyl)-3-phenyl-N-1,3,4-thiadiazol-2-ylpropanamide]	29.4%	
	15.8 nM	CCN(C)C(=O)c1ccc(-c2ccc(C(c3cccc(F)c3)C(C)C(=O)Nc3nncs3)s2)cc1 (single isomer, unassigned) [Example 98, N-ethyl-4-(5-(1-(3-fluorophenyl)-2-methyl-3-oxo-3-(1,3,4-thiadiazol-2-ylamino)propyl)-2-thienyl)-N-methylbenzamide]	55.3%	
	279 nM	CCN(C)C(=O)c1ccc(-c2ccc(C(c3cccc(F)c3)C(C)C(=O)Nc3nncs3)s2)cc1 (single isomer, unassigned) [Example 99, N-ethyl-4-(5-(1-(3-fluorophenyl)-2-methyl-3-oxo-3-(1,3,4-thiadiazol-2-ylamino)propyl)-2-thienyl)-N-methylbenzamide]		49.36 % inh
	8.8 nM	CC(C(=O)Nc1nncs1)C(c1cccc(F)c1)c1ccc(-c2ccc(C(=O)N3CCOCC3)cc2)s1 (single isomer, unassigned) [Example 100, 3-(3-fluorophenyl)-2-methyl-3-(5-(4-(4-morpholinylcarbonyl)phenyl)-2-thienyl)-N-1,3,4-thiadiazol-2-ylpropanamide]	50.6%	
	576 nM	CC(C(=O)Nc1nncs1)C(c1cccc(F)c1)c1ccc(-c2ccc(C(=O)N3CCOCC3)cc2)s1 (single isomer, unassigned) [Example 101, 3-(3-fluorophenyl)-2-methyl-3-(5-(4-(4-morpholinylcarbonyl)phenyl)-2-thienyl)-N-1,3,4-thiadiazol-2-ylpropanamide]		51.00 % inh
	10.6 nM	CC(C(=O)Nc1nncs1)C(c1cccc(F)c1)c1ccc(-c2ccc(C(=O)N(C)C)cc2)s1 (single isomer, unassigned) [Example 102, 4-(5-(1-(3-fluorophenyl)-2-methyl-3-oxo-3-(1,3,4-thiadiazol-2-ylamino)propyl)-2-thienyl)-N,N-dimethylbenzamide]	52.6%	
	879 nM	CC(C(=O)Nc1nncs1)C(c1cccc(F)c1)c1ccc(-c2ccc(C(=O)N(C)C)cc2)s1 (single isomer, unassigned) [Example 103, 4-(5-(1-(3-fluorophenyl)-2-methyl-3-oxo-3-(1,3,4-thiadiazol-2-ylamino)propyl)-2-thienyl)-N,N-dimethylbenzamide]		49.86 % inh
	38.7 nM	CC(C(=O)Nc1nncs1)C(c1cccc(F)c1)c1ccc(-c2ccc(C(=O)N(C)C)c(Cl)c2)s1 (single isomer, unassigned) [Example 104, 2-chloro-4-(5-(1-(3-fluorophenyl)-2-methyl-3-oxo-3-(1,3,4-thiadiazol-2-ylamino)propyl)-2-thienyl)-N,N-dimethylbenzamide]	49.5%	
	446 nM	CC(C(=O)Nc1nncs1)C(c1cccc(F)c1)c1ccc(-c2ccc(C(=O)N(C)C)c(Cl)c2)s1 (single isomer, unassigned) [Example 105, 2-chloro-4-(5-(1-(3-fluorophenyl)-2-methyl-3-oxo-3-(1,3,4-thiadiazol-2-ylamino)propyl)-2-thienyl)-N,N-dimethylbenzamide]		48.50 % inh
	5.98 nM	CC(C(=O)Nc1nncs1)C(c1ccccc1)c1ccc(-c2ccc(C(=O)N3CCOCC3)cc2)s1 (single isomer, unassigned) [Example 144, 2-methyl-3-(5-(4-(4-morpholinylcarbonyl)phenyl)-2-thienyl)-3-phenyl-N-1,3,4-thiadiazol-2-ylpropanamide]		49.49 % inh
	64.6 nM	CC(C(=O)Nc1nncs1)C(c1ccccc1)c1ccc(-c2ccc(C(=O)N3CCOCC3)cc2)s1 (single isomer, unassigned) [Example 145, 2-methyl-3-(5-(4-(4-morpholinylcarbonyl)phenyl)-2-thienyl)-3-phenyl-N-1,3,4-thiadiazol-2-ylpropanamide]		25.24 % inh
	14.6 nM	CC(C(=O)Nc1nncs1)C(c1ccccc1)c1ccc(-c2ccc(C(=O)N(C)C)cc2)s1 (single isomer, unassigned) [Example 146, N,N-dimethyl-4-(5-(2-methyl-3-oxo-1-phenyl-3-(1,3,4-thiadiazol-2-ylamino)propyl)-2-thienyl)benzamide]	59.1%	
	168 nM	CC(C(=O)Nc1nncs1)C(c1ccccc1)c1ccc(-c2ccc(C(=O)N(C)C)cc2)s1 (single isomer, unassigned) [Example 147, N,N-dimethyl-4-(5-(2-methyl-3-oxo-1-phenyl-3-(1,3,4-thiadiazol-2-ylamino)propyl)-2-thienyl)benzamide]		48.44 % inh
	24.6 nM	CC(C(=O)Nc1nncs1)C(c1ccccc1)c1ccc(-c2ccc(C(=O)N(C)C)c(Cl)c2)s1 (single isomer, unassigned) [Example 148, 2-chloro-N,N-dimethyl-4-(5-(2-methyl-3-oxo-1-phenyl-3-(1,3,4-thiadiazol-2-ylamino)propyl)-2-thienyl)benzamide]	51.5%	
	216 nM	CC(C(=O)Nc1nncs1)C(c1ccccc1)c1ccc(-c2ccc(C(=O)N(C)C)c(Cl)c2)s1 (single isomer, unassigned) [Example 149, 2-chloro-N,N-dimethyl-4-(5-(2-methyl-3-oxo-1-phenyl-3-(1,3,4-thiadiazol-2-ylamino)propyl)-2-thienyl)benzamide]		54.20 % inh
	17.5 nM	CCN(C)C(=O)c1ccc(-c2ccc(C(c3ccccc3)C(C)C(=O)Nc3nncs3)s2)cc1 (single isomer, unassigned) [Example 150, N-ethyl-N-methyl-4-(5-(2-methyl-3-oxo-1-phenyl-3-(1,3,4-thiadiazol-2-ylamino)propyl)-2-thienyl)benzamide]	57.2%	
	203 nM	CCN(C)C(=O)c1ccc(-c2ccc(C(c3ccccc3)C(C)C(=O)Nc3nncs3)s2)cc1 (single isomer, unassigned) [Example 151, N-ethyl-N-methyl-4-(5-(2-methyl-3-oxo-1-phenyl-3-(1,3,4-thiadiazol-2-ylamino)propyl)-2-thienyl)benzamide]		48.08 % inh
18.7 nM		CC(C)(C(=O)Nc1nc(Cc2ccc(-c3ccncc3)cc2)cs1)C(c1ccccc1)c1ccncc1 (stereo not shown) [Example 5, 2,2-dimethyl-3-phenyl-3-(4-pyridinyl)-N-(4-(4-(4-pyridinyl)benzyl)-1,3-thiazol-2-yl)propanamide]	89.9%	
700 nM		CC(C)(C(=O)Nc1nccs1)C(c1cccc(F)c1)c1ccc(N2CCOCC2)s1 (stereo not shown) [Example 10, 3-(3-fluorophenyl)-2,2-dimethyl-3-(5-(4-morpholinyl)-2-thienyl)-N-1,3-thiazol-2-ylpropanamide]	40%	
245 nM		CC(C)(C(=O)Nc1nncs1)C(c1ccccc1)c1ccc(N2CCOCC2)nc1 (stereo not shown) [Example 13, 2,2-dimethyl-3-(6-(4-morpholinyl)-3-pyridinyl)-3-phenyl-N-1,3,4-thiadiazol-2-ylpropanamide]	42.2%	
62.9 nM		CC(C)(C(=O)Nc1nccs1)C(c1ccccc1)c1ccc(N2CCOCC2)nc1 (stereo not shown) [Example 14, 2,2-dimethyl-3-(6-(4-morpholinyl)-3-pyridinyl)-3-phenyl-N-1,3-thiazol-2-ylpropanamide]	46%	
316 nM		COc1ccc(-c2ccc(C(c3ccccc3)C(C)(C)C(=O)Nc3nccs3)cn2)cc1 (stereo not shown) [Example 26, 3-(6-(4-methoxyphenyl)-3-pyridinyl)-2,2-dimethyl-3-phenyl-N-1,3-thiazol-2-ylpropanamide]	41.4%	
49 nM		CCCc1ccc(-c2ccc(C(c3ccccc3)C(C)(C)C(=O)Nc3nncs3)cn2)cc1 (stereo not shown) [Example 30, 2,2-dimethyl-3-phenyl-3-(6-(4-propylphenyl)-3-pyridinyl)-N-1,3,4-thiadiazol-2-ylpropanamide]	39.4%	
21.5 nM		CC(C)Cc1ccc(-c2ccc(C(c3ccccc3)C(C)(C)C(=O)Nc3nncs3)cn2)cc1 (stereo not shown) [Example 31, 3-(6-(4-isobutylphenyl)-3-pyridinyl)-2,2-dimethyl-3-phenyl-N-1,3,4-thiadiazol-2-ylpropanamide]	46.8%	
73.9 nM		CN(C)C(=O)c1ccc(-c2ccc(C(c3ccccc3)C(C)(C)C(=O)Nc3nncs3)cn2)cc1 (stereo not shown) [Example 32, 4-(5-(2,2-dimethyl-3-oxo-1-phenyl-3-(1,3,4-thiadiazol-2-ylamino)propyl)-2-pyridinyl)-N,N-dimethylbenzamide]	43.1%	
